Test results taken from ChEMBL document CHEMBL1136158, “Effect of the acyl groups on O-->N acyl migration in the water-soluble prodrugs of HIV-1 protease inhibitor” (Bioorg Med Chem Lett, 2003).
≈ marks a conversion by molar mass, not a printed value.

Key:
[1] = Time required for 50% release of parent drug in phosphate buffered saline (PBS) at 37 degrees Centigrade; assay type: ADME; conditions: buffer
[2] = Solubility ratio of prodrug versus parent drug; assay type: physicochemical
[3] = Dissociation constant was determined; assay type: physicochemical

Row | SMILES | solubility (physchem) | T1/2 [1] | Solubility ratio [2] | pKa [3]
1 | CC(C)(C)NC(=O)[C@H]1N(C(=O)[C@@H](O)[C@H](Cc2ccccc2)NC(=O)OCc2ccccc2)CSC1(C)C | 47 µg/mL (≈ 89.1 µM) |  |  | 
2 | CC(C)(C)NC(=O)[C@H]1N(C(=O)[C@@H](O)[C@H](Cc2ccccc2)NC(=O)c2ccc(Cl)cc2)CSC1(C)C | 28 µg/mL (≈ 52.6 µM) |  |  | 
3 | CC(C)(C)NC(=O)[C@H]1N(C(=O)[C@@H](O)[C@H](Cc2ccccc2)NC(=O)c2ccccc2)CSC1(C)C | 120 µg/mL (≈ 241 µM) |  |  | 
4 | CC(C)(C)NC(=O)[C@H]1N(C(=O)[C@@H](O)[C@H](Cc2ccccc2)NC(=O)c2ccc([N+](=O)[O-])cc2)CSC1(C)C | 57 µg/mL (≈ 105 µM) |  |  | 
5 | CC(C)(C)NC(=O)[C@H]1N(C(=O)[C@@H](OC(=O)c2ccc([N+](=O)[O-])cc2)[C@@H](N)Cc2ccccc2)CSC1(C)C.Cl | 13000 µg/mL | 2.6 min | 228 | 
6 | Cc1cccc(C)c1OCC(=O)O[C@H](C(=O)N1CSC(C)(C)[C@H]1C(=O)NC(C)(C)C)[C@@H](N)Cc1ccccc1.Cl | 13000 µg/mL | < 1 min | 8666 | 
7 | CC(C)(C)NC(=O)[C@H]1N(C(=O)[C@@H](OC(=O)OCc2ccccc2)[C@@H](N)Cc2ccccc2)CSC1(C)C.Cl | 21000 µg/mL | < 1 min | 449 | 3.2
8 | CC(C)(C)NC(=O)[C@H]1N(C(=O)[C@@H](OC(=O)c2ccc(Cl)cc2)[C@@H](N)Cc2ccccc2)CSC1(C)C.Cl | 4300 µg/mL | 16 min | 154 | 
9 | CC(C)(C)NC(=O)[C@H]1N(C(=O)[C@@H](OC(=O)Cc2ccccc2)[C@@H](N)Cc2ccccc2)CSC1(C)C.Cl | 33000 µg/mL | 2.2 min | 340 | 4.31
10 | CC(C)(C)NC(=O)[C@H]1N(C(=O)[C@@H](OC(=O)c2ccccc2)[C@@H](N)Cc2ccccc2)CSC1(C)C.Cl | 15000 µg/mL | 30 min | 125 | 4.2
11 | Cc1ccc(C(=O)O[C@H](C(=O)N2CSC(C)(C)[C@H]2C(=O)NC(C)(C)C)[C@@H](N)Cc2ccccc2)cc1.Cl | 6200 µg/mL | 44 min | 155 | 
12 | COc1ccc(C(=O)O[C@H](C(=O)N2CSC(C)(C)[C@H]2C(=O)NC(C)(C)C)[C@@H](N)Cc2ccccc2)cc1.Cl | 16000 µg/mL | 67 min | 211 | 
13 | CC(C)(C)NC(=O)[C@H]1N(C(=O)[C@@H](O)[C@H](Cc2ccccc2)NC(=O)Cc2ccccc2)CSC1(C)C | 97 µg/mL (≈ 190 µM) |  |  | 
14 | COc1ccc(C(=O)N[C@@H](Cc2ccccc2)[C@H](O)C(=O)N2CSC(C)(C)[C@H]2C(=O)NC(C)(C)C)cc1 | 76 µg/mL (≈ 144 µM) |  |  | 
